Laboratory results published in patent US20250151812A1, “METHOD AND INHALER FOR PROVIDING TWO OR MORE […] INHALATION” (Syqe Medical Ltd., priority 2018, published 2025).
“And” between values parts separate entries of the source, which are not always exact repeats. Equal entries are not always repeated.

Columns and labels:
Format in all cases: physicochemical
[1] = Bediol strain Cannabis, two heating durations; aerosol analyzed using UPLC (Table 3, FIG. 17B); conditions: 180 C., 1.1 L/min; for mg API: in aerosol, 13.5 mg Bediol strain Cannabis; for total (acid + neutral form): sum for the acid and its neutral form, 13.5 mg Bediol
Protocol: In the following related experiment performed by the inventors, samples having 13.5 mg of Bediol strain Cannabis (Bedrocan, Holland) were tested using two operation profiles and compared to a raw material. The samples were heated to a temperature of 180° C. under an airflow rate of 1.1 liter/minute. In the first operation profile, the heating duration was 1.5 seconds; in the second operation profile, the heating duration was 2.5 seconds. Aerosol was collected, extracted and analyzed using UPLC. As can be observed from this example, under certain conditions, lengthening the heating duration increased the CBD/total THC ratio (from about 0.79 in the first operation profile to about 0.96 in the second operation profile). As can also be observed from this example, under certain conditions, lengthening the heating duration released higher amounts of all active substances tested (CBDA, CBD, THCA, Δ9-THC). (API-active pharmaceutical ingredient).

[2] = FIG. 6: CBDA/CBD and THCA/Δ9-THC ratios at two operation profiles; aerosol analyzed using UPLC; conditions: 13.5 mg cannabis; 180° C., airflow 1 liter/minute; 1.5 seconds versus 2.5 second
Protocol: Reference is now made to FIG. 6, which is a bar chart of the ratios between CBDA/CBD and THCA/Δ9-THC received at various operation profiles according to some embodiments of the invention. Samples having 13.5 mg of a defined type of cannabis were tested at two operation profiles. The samples were heated to a temperature of 180° C. under an airflow of 1 liter/minute) for 1.5 seconds and 2.5 second. Aerosol was collected, extracted and analyzed using UPLC.

[3] = Various operation profiles (heating temperature, airflow rate, heating duration); aerosol analyzed in UPLC for THCA and Δ9-THC
Protocol: In another experiment performed by the inventors, various operation profiles were tested. In lines 1-9 of the table below, a change in the heating temperature was tested, while the rate of airflow and the heating duration remained constant. Aerosol was collected and extracted and analyzed in UPLC for the presence of THCA and Δ9-THC. A graph presenting the results obtained for the various heating temperatures is shown in FIG. 7 and further discussed below; in lines 10-14 of the table, a change in the rate of airflow was tested, while the temperature and the heating duration remained constant; in lines 17-19 of the table, a change in the heating duration was tested, while the temperature and rate of airflow remained constant. As can be observed, in this example, under certain conditions, increasing the heating temperature (while maintaining other parameters (flow rate, duration of heating) constant) reduced the percentage of THCA released; lengthening the heating duration (while maintaining other parameters constant) reduced the percentage of THCA released. (As shown below, the percentage of THCA was calculated as the amount of THCA divided by the total amount of both THCA and Δ9-THC.)
Reference is now made to FIG. 7 which is a graph showing the effect of the temperature on the relative amount of THCA vaporized. The experiment procedure and the results are also discussed above and presented in Table 2 Samples having 13.5 mg of a defined type of cannabis were tested by applying air at 1.1 liter/minute for 1.5 seconds at various temperatures from 160°° C. to 200° C. The relative amount of THCA were measured against the total amounts of Δ9-THC+THCA. […] Accordingly, by selecting the temperature and/or the time-temperature profile, the amount of THCA provided during inhalation may be controlled (e.g., selected by the user).

[4] = Effect of airflow rate on decarboxylation of THCA; aerosol from heated Bedrocan cannabis samples analyzed in UPLC; conditions: 13.5 mg Bedrocan sample, 185° C., 1620 ms
Protocol: In the following experiment performed by the inventors, the effect of airflow rate on decarboxylation of THCA was tested. 14 samples (7 samples tested in each of the profiles) of 13.5 mg each of Bedrocan strain (Bedrocan, Holland) were heated for 1620 ms to a temperature of 185° C. In a first operation profile (upper table), the rate of flow through the sample was set to 1.1 L/min; in a second operation profile (lower table), the rate of airflow through the sample was set to 0.85 L/min. Aerosol was collected and extracted and analyzed in UPLC (Ultra performance liquid chromatography) for the presence of THCA and Δ9-THC. As can be observed, in this example, under certain conditions, increasing the rate of flow through the sample increased the percentage of THCA in the aerosol. (As shown below, the percentage of THCA was calculated as the amount of THCA divided by the total amount of both THCA and Δ9-THC.) The graph of FIG. 17A presents the results shown in the table below.

Row | SMILES | mg API ([1]; heating duration 1500 ms) [mg] | mg API ([1]; heating duration 2500 ms) [mg] | total (acid + neutral form) ([1]; heating duration 1500 ms) | total (acid + neutral form) ([1]; heating duration 2500 ms) | amount of acids left after vaporization, by heating duration [2] | Δ9-THC ([3]; 13.5 mg cannabis, 1.1 L/min, 1500 ms, 160° C.) | Δ9-THC ([3]; 13.5 mg cannabis, 1.1 L/min, 1500 ms, 175° C.) | Δ9-THC ([3]; 13.5 mg cannabis, 1.1 L/min, 1500 ms, 200° C.) | Δ9-THC ([3]; 175 C., 1500 ms, flow 1.2 L/min) | Δ9-THC ([3]; 175 C., 1500 ms, flow 1.3 L/min) | Δ9-THC ([3]; 185° C., 1.1 L/min, heating 600 ms) [mg] | Δ9-THC ([3]; 185° C., 1.1 L/min, heating 800 ms) [mg] | Δ9-THC ([3]; 185° C., 1.1 L/min, heating 1000 ms) [mg] | Δ9-THC ([4]; flow rate 0.85 L/min) | Δ9-THC ([4]; flow rate 1.1 L/min)
1 | C=C(C)[C@@H]1CCC(C)=C[C@H]1c1c(O)cc(CCCCC)cc1O [CBD, Cannabidiol, reference compound] | 0.201 | 0.477 | – | – | – | – | – | – | – | – | – | – | – | – | –
2 | C=C(C)[C@@H]1CCC(C)=C[C@H]1c1c(O)cc(CCCCC)c(C(=O)O)c1O [CBDA, cannabidiolic acid] | 0.125 | 0.188 | 0.311 | 0.642 | the longer the operation profile the less amount of acids | – | – | – | – | – | – | – | – | – | –
3 | CCCCCc1cc(O)c2c(c1)OC(C)(C)[C@@H]1CCC(C)=C[C@@H]21 [Δ9-THC, Δ9-tetrahydrocannabinol, reference compound] | 0.254 | 0.498 | – | – | – | 0.220 mg and 0.201 mg and 0.208 mg | 0.475 mg and 0.461 mg and 0.478 mg | 0.972 mg and 0.831 mg and 0.790 mg | 0.467 mg and 0.423 mg | 0.459 mg and 0.468 mg and 0.440 mg | 0.093 | 0.315 | 0.620 | 0.521 mg and 0.559 mg and 0.529 mg and 0.486 mg and 0.434 mg and 0.357 mg and 0.365 mg | 0.462 mg and 0.452 mg and 0.445 mg and 0.484 mg and 0.527 mg and 0.431 mg and 0.587 mg
